ChEMBL document CHEMBL1134625 (J Med Chem, 2001)

Tests used:
[1] = target: Cannabinoid receptor 1 (Homo sapiens, UniProt P21554)
[2] = target: D(1B) dopamine receptor (Homo sapiens, UniProt P21918)
[3] = target: D(3) dopamine receptor (Homo sapiens, UniProt P35462)
[4] = target: Sodium-dependent dopamine transporter (Homo sapiens, UniProt Q01959)
[5] = target: Vasopressin V1a receptor (Homo sapiens, UniProt P37288)
[6] = target: T1, D(4) dopamine receptor (Homo sapiens, UniProt P21917)
T1 sequence (P21917 whole entry): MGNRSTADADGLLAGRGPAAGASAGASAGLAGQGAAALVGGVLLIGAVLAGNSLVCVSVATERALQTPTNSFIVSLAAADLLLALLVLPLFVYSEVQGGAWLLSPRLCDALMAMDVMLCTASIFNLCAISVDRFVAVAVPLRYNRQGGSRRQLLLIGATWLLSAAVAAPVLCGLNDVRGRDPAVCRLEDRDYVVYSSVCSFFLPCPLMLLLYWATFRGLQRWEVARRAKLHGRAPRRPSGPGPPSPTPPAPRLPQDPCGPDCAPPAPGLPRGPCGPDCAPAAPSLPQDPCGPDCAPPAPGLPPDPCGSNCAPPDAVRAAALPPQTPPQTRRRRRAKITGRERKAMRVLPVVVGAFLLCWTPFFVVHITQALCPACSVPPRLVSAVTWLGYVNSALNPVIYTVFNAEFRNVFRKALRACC

[7] = target: 5-hydroxytryptamine receptor 7 (Homo sapiens, UniProt P34969)
Chain of 5-hydroxytryptamine receptor 7 (P34969 whole entry): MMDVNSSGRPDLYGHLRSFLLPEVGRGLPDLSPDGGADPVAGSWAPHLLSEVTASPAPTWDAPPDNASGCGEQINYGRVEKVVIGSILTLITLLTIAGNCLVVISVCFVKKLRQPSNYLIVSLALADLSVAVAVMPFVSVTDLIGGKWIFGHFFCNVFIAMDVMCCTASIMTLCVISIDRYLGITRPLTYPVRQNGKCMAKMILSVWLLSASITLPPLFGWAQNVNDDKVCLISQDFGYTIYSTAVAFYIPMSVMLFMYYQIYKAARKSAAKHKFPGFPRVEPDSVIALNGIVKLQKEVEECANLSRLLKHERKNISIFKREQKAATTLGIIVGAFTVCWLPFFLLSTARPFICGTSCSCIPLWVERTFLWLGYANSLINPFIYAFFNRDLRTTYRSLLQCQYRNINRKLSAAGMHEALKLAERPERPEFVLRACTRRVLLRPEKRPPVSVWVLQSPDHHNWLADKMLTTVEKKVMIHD

[8] = target: 5-hydroxytryptamine receptor 1B (Homo sapiens, UniProt P28222)
Chain of 5-hydroxytryptamine receptor 1B (P28222 whole entry): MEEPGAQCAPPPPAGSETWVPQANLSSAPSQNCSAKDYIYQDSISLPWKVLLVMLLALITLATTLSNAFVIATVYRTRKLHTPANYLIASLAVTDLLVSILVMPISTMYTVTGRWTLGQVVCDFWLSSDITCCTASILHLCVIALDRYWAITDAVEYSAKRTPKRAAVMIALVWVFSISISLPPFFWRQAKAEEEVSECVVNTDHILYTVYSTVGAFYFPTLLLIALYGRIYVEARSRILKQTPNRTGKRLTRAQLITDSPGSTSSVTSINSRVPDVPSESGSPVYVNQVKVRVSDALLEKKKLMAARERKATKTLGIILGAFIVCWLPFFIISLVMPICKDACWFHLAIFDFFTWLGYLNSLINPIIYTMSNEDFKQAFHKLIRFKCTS

[9] = target: T2, Adrenergic receptor alpha-1 (Homo sapiens, UniProt P35348+P25100+P35368); type: protein assay
T2 sequence (P35348 whole entry): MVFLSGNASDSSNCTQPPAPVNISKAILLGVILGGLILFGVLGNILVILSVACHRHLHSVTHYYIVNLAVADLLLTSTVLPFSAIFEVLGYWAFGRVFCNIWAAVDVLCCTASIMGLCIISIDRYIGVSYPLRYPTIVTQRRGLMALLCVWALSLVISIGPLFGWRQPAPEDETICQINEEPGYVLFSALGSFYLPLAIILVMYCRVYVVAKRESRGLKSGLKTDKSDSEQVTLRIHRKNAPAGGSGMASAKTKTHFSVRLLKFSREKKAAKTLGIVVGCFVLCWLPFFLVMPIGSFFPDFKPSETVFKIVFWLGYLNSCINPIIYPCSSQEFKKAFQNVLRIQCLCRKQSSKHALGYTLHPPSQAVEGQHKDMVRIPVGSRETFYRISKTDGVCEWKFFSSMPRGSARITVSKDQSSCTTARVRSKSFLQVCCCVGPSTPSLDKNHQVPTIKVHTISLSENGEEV
T2 sequence (P25100 whole entry): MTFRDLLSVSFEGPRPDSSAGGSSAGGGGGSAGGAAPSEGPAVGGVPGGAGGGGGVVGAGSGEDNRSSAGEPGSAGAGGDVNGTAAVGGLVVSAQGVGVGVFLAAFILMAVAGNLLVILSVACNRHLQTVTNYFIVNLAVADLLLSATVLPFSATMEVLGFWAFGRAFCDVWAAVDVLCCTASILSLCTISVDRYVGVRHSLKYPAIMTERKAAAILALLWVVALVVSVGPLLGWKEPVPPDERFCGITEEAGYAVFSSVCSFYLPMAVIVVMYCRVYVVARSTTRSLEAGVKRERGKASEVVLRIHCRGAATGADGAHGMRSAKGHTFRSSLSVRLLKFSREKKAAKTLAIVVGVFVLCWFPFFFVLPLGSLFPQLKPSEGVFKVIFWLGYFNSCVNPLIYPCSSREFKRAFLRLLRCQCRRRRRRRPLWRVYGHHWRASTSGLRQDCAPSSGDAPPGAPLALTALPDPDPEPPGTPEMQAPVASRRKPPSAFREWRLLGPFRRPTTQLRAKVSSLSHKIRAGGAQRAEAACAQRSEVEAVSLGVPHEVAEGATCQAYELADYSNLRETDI
T2 sequence (P35368 whole entry): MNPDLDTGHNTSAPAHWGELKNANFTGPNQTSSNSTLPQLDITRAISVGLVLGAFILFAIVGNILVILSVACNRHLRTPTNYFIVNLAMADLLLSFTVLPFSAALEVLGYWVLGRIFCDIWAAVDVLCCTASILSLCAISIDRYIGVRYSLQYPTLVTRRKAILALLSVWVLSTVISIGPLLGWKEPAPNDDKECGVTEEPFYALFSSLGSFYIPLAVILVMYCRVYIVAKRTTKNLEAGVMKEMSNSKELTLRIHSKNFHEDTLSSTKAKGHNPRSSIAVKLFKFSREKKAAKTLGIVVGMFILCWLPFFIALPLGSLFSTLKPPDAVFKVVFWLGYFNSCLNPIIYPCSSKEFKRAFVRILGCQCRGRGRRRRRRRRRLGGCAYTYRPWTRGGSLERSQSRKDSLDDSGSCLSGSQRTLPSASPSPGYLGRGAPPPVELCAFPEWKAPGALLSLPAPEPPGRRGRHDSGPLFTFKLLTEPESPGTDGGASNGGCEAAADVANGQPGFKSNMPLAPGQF

[10] = target: 5-hydroxytryptamine receptor 2A (Homo sapiens, UniProt P28223)
Chain of 5-hydroxytryptamine receptor 2A (P28223 whole entry): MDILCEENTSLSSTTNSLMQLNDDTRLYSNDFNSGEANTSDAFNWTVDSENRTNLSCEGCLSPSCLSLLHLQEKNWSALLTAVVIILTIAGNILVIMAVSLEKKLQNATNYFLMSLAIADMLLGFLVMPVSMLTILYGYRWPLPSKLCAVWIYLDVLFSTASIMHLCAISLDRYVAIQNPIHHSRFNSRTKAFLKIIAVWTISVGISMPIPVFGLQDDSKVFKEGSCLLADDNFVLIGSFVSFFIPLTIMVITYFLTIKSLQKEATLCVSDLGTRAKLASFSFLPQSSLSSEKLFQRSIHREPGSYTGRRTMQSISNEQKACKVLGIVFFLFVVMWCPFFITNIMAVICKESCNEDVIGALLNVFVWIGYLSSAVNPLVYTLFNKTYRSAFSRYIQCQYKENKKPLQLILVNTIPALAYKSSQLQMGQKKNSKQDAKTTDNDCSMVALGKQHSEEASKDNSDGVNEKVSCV

[11] = target: T3, Adenosine receptor A3 (Homo sapiens, UniProt P0DMS8)
T3 sequence (P0DMS8 whole entry): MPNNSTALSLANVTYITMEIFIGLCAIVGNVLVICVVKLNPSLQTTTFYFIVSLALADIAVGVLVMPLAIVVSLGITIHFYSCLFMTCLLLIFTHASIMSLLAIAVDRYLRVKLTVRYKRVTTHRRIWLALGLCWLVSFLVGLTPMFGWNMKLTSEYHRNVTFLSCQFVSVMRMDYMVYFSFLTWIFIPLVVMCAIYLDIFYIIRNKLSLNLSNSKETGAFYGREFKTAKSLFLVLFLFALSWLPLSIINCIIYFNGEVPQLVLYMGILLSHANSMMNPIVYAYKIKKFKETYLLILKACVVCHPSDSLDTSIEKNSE

[12] = target: Voltage-gated L-type calcium channel (Homo sapiens, UniProt Q13936+Q13698+Q01668+O60840); type: protein assay
[13] = target: Histamine H1 receptor (Homo sapiens, UniProt P35367)
Chain of Histamine H1 receptor (P35367 whole entry): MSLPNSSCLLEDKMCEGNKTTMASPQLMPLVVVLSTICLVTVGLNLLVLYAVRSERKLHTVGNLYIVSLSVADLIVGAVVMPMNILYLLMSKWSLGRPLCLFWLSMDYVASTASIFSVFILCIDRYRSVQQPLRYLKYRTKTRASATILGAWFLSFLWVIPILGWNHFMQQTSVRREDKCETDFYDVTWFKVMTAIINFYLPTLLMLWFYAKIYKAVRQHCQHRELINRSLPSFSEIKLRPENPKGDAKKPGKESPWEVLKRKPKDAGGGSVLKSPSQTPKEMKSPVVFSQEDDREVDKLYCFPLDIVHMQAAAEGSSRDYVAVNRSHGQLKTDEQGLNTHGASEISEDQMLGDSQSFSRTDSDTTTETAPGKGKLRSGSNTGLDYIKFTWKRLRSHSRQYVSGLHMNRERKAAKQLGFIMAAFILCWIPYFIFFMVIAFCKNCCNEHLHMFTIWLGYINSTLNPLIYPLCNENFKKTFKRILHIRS

[14] = target: 5-hydroxytryptamine receptor 6 (Homo sapiens, UniProt P50406)
[15] = target: Histamine H2 receptor (Homo sapiens, UniProt P25021)
Chain of Histamine H2 receptor (P25021 whole entry): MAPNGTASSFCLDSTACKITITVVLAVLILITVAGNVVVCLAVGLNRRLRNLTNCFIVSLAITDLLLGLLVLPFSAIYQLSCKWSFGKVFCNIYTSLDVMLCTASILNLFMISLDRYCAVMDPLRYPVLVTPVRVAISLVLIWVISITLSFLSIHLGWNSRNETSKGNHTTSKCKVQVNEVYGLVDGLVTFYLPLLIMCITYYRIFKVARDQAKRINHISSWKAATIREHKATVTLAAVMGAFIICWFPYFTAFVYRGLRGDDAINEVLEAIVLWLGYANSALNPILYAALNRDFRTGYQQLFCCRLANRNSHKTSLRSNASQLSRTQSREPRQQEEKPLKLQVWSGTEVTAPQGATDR

[16] = target: D(1A) dopamine receptor (Homo sapiens, UniProt P21728)
Chain of D(1A) dopamine receptor (P21728 whole entry): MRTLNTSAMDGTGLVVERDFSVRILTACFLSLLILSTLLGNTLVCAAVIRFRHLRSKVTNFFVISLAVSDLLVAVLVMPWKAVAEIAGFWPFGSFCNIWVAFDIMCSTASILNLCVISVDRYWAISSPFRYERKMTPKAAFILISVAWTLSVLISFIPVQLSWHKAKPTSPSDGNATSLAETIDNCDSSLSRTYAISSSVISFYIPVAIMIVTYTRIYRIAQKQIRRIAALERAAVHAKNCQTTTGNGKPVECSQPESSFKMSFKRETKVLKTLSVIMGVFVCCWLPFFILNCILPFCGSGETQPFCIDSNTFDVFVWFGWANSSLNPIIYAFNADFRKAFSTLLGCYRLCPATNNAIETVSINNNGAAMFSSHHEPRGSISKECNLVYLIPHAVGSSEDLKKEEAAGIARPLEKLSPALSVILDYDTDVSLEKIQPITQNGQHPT

Chain of D(1B) dopamine receptor (P21918 whole entry): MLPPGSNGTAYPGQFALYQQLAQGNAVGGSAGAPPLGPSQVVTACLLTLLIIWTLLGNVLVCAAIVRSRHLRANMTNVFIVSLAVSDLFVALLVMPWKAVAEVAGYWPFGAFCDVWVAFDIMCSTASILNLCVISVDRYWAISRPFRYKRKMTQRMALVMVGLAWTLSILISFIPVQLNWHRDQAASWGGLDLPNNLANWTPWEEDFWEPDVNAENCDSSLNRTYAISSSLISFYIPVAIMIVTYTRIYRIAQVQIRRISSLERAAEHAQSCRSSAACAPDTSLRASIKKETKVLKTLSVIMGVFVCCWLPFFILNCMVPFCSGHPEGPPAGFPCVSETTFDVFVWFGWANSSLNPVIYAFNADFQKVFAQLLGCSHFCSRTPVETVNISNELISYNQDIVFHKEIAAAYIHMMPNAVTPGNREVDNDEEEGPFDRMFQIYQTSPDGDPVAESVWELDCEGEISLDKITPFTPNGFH
Chain of Vasopressin V1a receptor (P37288 whole entry): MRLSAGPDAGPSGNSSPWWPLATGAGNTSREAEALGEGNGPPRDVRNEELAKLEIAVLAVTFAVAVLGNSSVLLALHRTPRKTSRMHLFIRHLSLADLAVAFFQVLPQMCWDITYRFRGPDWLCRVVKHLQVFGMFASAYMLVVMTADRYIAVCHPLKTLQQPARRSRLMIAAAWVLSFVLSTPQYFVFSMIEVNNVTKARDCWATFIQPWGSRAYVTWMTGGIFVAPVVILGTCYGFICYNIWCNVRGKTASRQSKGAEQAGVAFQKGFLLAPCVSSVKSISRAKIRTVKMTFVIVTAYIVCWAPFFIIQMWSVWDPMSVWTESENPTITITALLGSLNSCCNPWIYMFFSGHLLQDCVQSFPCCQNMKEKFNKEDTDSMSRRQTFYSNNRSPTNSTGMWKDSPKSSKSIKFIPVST
Chain of Sodium-dependent dopamine transporter (Q01959 whole entry): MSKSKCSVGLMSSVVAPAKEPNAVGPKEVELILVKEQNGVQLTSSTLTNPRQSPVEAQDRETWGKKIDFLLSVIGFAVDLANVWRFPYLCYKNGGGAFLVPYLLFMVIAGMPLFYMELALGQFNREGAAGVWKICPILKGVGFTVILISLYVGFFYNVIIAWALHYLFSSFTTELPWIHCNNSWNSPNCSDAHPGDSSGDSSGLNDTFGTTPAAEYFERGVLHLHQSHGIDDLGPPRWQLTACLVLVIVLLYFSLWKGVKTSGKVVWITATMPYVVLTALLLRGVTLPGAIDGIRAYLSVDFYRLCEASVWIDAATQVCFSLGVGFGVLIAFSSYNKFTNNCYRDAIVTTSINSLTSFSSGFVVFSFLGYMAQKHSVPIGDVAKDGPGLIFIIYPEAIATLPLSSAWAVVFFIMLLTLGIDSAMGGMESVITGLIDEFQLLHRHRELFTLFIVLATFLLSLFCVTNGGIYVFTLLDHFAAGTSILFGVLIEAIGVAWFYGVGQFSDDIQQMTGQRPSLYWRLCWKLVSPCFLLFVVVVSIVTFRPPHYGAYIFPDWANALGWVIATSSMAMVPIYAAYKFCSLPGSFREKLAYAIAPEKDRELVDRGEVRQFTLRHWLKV
Chain of Cannabinoid receptor 1 (P21554 whole entry): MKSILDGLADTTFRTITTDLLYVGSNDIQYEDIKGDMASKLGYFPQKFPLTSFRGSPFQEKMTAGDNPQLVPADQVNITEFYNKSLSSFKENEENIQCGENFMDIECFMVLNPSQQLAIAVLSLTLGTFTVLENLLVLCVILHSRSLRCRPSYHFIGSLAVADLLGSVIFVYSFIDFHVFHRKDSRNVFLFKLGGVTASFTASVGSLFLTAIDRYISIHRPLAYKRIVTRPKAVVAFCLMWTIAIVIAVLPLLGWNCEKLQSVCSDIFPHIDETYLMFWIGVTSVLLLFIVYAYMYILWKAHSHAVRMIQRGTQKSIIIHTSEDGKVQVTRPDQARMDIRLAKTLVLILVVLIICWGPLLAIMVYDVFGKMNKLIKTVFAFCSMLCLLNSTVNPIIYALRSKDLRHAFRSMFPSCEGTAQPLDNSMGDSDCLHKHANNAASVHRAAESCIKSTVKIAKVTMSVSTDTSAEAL

N#Cc1ccc(CCOC(=O)NC2CCN(CCCC(c3ccc(F)cc3)c3ccc(F)cc3)CC2)cc1
IC50 [1]: 6090 nM
IC50 [2]: 513 nM
IC50 [3]: 538 nM
IC50 [4]: 781 nM
IC50 [5]: 3650 nM
IC50 [6]: 543 nM
IC50 [7]: 998 nM
IC50 [8]: 3580 nM
IC50 [9]: 417 nM
IC50 [10]: 683 nM
IC50 [11]: 5980 nM
IC50 [12]: 284 nM
IC50 [13]: 454 nM
IC50 [14]: 427 nM
IC50 [15]: 368 nM
IC50 [16]: 376 nM
